According to patent US20240208932A1, “ARYLAMINO DERIVATIVE ESTROGEN RECEPTOR MODULATOR AND USE THEREOF” (XIZANG HAISCO PHARMACEUTICAL CO., LTD., priority 2021, published 2024):

Tests used:
[1] = Pharmacokinetic test in rats; type: in vivo; conditions: male, SD, rat, plasma; for Vd: read-out: Vdss
Procedure: 3. Pharmacokinetic Test in Rats
3.1 Experimental animals: male SD rats, about 220 g, 6-8 weeks old, 6 rats/compound, purchased from Chengdu Ddossy Experimental Animals Co., Ltd.
3.2 Experimental design: on the day of the test, 24 SD rats were randomly grouped according to their body weight; the animals were fasted with water available for 12 to 14 h one day before the administration, and were fed 4 h after the administration;
(DMA: dimethylacetamide; Solutol: Polyethylene glycol-15-hydroxystearate; Saline: Normal saline; MC: methylcellulose)
(§1) Before and after the administration, 0.15 ml of blood was taken from the orbit of the animals under isoflurane anesthesia and placed in an EDTAK2 centrifuge tube. The blood was centrifuged at 5000 rpm and 4° C. for 10 min to collect plasma. The blood collection time points for the intravenous administration group and intragastric administration group were: 0, 5 min, 15 min, 30 min, 1 h, 2 h, 4 h, 6 h, 8 h, and 24 h. Before analysis and detection, all samples were stored at −80° C., and a quantitative analysis of samples was performed using LC-MS/MS.

[2] = Pharmacokinetic test in mice; type: in vivo; conditions: male, ICR, mouse, plasma; for Vd: read-out: Vdss
Procedure: 4. Pharmacokinetic Test in Mice
4.1 Experimental animals: male ICR mice, 20-25 g, 18 mice/compound. purchased from Chengdu Ddossy Experimental Animals Co., Ltd.
4.2 Experimental design: on the day of the test, 72 ICR mice were randomly grouped according to their body weights. the animals were fasted with water available for 12 to 14 h one day before the administration, and were fed 4 h after the administration;
as §1, with “administration, 0.06 mL” for “administration, 0.15 ml”, “intravenous” for “intravenous administration”, “administration […]” for “administration”, “were: 0 min,” for “were: 0,”

[3] = target: hERG potassium ion channel (Homo sapiens (Human), UniProt Q12809); experiment: Test for hERG potassium ion channel (manual patch-clamp, CHO cells); type: cell-based; conditions: for IC50: CHO cells stably expressing hERG, whole cell patch-clamp, read-out: IC50 on hERG potassium channel current; for inhibition at 40 µM: human, CHO cells stably expressing hERG potassium channel, hERG potassium channel current, read-out: Inhibition rate at the highest concentration tested
Chain of hERG potassium ion channel (Q12809 whole entry): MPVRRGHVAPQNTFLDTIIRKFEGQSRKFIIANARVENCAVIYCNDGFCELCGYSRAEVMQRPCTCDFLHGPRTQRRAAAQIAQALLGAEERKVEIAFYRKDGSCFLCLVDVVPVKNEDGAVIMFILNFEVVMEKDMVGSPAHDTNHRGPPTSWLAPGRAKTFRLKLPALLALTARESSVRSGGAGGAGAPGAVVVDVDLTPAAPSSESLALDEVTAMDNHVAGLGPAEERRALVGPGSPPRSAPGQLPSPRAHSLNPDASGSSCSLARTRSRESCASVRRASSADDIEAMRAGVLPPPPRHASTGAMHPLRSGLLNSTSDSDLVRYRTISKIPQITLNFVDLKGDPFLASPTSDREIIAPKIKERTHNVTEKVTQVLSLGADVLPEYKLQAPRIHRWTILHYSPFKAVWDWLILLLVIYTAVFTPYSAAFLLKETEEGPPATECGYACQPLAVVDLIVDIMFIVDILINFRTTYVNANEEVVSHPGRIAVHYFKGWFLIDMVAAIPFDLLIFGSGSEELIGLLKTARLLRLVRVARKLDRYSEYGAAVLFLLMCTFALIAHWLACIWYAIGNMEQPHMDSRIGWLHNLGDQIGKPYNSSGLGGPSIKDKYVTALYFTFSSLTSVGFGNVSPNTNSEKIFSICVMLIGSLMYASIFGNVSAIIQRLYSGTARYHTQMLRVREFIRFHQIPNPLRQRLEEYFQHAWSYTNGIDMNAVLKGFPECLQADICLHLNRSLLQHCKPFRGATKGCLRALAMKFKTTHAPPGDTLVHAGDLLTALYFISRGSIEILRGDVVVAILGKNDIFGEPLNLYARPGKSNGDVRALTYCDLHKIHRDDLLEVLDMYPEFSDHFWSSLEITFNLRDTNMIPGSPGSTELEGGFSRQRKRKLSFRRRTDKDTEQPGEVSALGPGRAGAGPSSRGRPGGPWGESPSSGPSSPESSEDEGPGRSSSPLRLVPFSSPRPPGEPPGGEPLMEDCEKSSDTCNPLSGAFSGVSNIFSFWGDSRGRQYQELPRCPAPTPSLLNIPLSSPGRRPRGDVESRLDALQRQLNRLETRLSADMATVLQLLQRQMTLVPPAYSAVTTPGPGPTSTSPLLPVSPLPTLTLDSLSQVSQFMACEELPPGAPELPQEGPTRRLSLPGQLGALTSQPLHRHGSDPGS
Source text: 5. Test for hERG Potassium Ion Channel
Test platform: electrophysiological manual patch-clamp system
Cell line: Chinese hamster ovary (CHO) cell lines stably expressing hERG potassium ion channel Test method: In CHO (Chinese Hamster Ovary) cells stably expressing hERG potassium channel, whole cell patch-clamp technique was used to record hERG potassium channel current at room temperature. The glass microelectrode was made of a glass electrode blank (BF150-86-10, Sutter) by a puller. The tip resistance after filling the liquid in the electrode was about 2-5 MΩ. The glass microelectrode can be connected to the patch-clamp amplifier by inserting the glass microelectrode into an amplifier probe. The clamping voltage and data recording were controlled and recorded by the pClamp 10 software through a computer. The sampling frequency was 10 kHz, and the filtering frequency was 2 kHz. After the whole cell records were obtained, the cells were clamped at −80 mV, and the step voltage that induced the hERG potassium current (I hERG) was depolarized from −80 mV to +20 mV for 2 s, then repolarized to −50 mV, and returned to −80 mV after 1 s. This voltage stimulation was given every 10 s, and the administration process was started after the hERG potassium current was confirmed to be stable (at least 1 minute). The compound was administered for at least 1 minute at each test concentration, and at least 2 cells ([…]) were tested at each concentration.
Data processing: Data analysis processing was carried out by using pClamp 10, GraphPad Prism 5 and Excel software. The inhibition degree of hERG potassium current (peak value of hERG tail current induced at −50 mV) at different compound concentrations was calculated by the following formula:
Inhibition %=[1−(I/Io)]×100% wherein, Inhibition % represents the percentage of inhibition of hERG potassium current by the compound, and I and Io represent the amplitude of hERG potassium current after and before dosing, respectively.
IC50 for the compound was calculated using GraphPad Prism 5 software by fitting according to the following equation:
Y=Bottom+(Top−Bottom)/(1+10^((LogIC50−X)*HillSlope)) wherein, X represents the Log value of the tested concentration of the test sample, Y represents the inhibition percentage at the corresponding concentration, and Bottom and Top represent the minimum and maximum inhibition percentage, respectively.

[4] = target: CYP1A2 (Homo sapiens (Human), UniProt P05177); experiment: CYP450 enzyme inhibition test, human liver microsomes; type: in vitro ADME; conditions: incubation concentration 0-50/100 μM
Chain of CYP1A2 (P05177 whole entry): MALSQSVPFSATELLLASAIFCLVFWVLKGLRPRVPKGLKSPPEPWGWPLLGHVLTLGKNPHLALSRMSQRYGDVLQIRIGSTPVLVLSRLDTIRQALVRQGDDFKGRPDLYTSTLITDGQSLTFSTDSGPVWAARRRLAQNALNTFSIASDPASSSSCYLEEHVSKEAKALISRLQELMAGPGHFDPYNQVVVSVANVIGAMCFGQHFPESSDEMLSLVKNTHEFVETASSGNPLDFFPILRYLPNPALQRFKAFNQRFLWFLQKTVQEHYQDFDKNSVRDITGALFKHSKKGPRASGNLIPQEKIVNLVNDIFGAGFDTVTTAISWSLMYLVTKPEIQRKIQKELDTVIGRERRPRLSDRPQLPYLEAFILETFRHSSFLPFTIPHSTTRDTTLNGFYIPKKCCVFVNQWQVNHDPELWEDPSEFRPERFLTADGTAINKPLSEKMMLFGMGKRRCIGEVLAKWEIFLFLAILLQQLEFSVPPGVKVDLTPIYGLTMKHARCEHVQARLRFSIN
Procedure: (§2) 6. CYP450 Enzyme Inhibition Test
(§3) The purpose of this study was to evaluate the effect of the test compound on the activity of five isoenzymes (CYP1A2, CYP2C9, CYP2C19, CYP2D6 and CYP3A4) of human liver microsomal cytochrome P450 (CYP) by using an in vitro testing system. The specific probe substrates of CYP450 isoenzymes were incubated with human liver microsomes and test compounds of different concentrations, and reduced nicotinamide adenine dinucleotide phosphate (NADPH) was added to initiate the reaction. After the completion of the reaction, the sample was treated and liquid chromatography-tandem mass spectrometry (LC-MS/MS) was used to quantitatively detect metabolites produced by specific substrates, changes in CYP enzyme activity were determined, and IC50 value was calculated to evaluate the inhibitory potential of the test compound on each CYP enzyme subtype.

[5] = target: CYP2C9 (Homo sapiens (Human), UniProt P11712); experiment: as above; type: in vitro ADME; conditions: incubation concentration 0-50/100 μM
Chain of CYP2C9 (P11712 whole entry): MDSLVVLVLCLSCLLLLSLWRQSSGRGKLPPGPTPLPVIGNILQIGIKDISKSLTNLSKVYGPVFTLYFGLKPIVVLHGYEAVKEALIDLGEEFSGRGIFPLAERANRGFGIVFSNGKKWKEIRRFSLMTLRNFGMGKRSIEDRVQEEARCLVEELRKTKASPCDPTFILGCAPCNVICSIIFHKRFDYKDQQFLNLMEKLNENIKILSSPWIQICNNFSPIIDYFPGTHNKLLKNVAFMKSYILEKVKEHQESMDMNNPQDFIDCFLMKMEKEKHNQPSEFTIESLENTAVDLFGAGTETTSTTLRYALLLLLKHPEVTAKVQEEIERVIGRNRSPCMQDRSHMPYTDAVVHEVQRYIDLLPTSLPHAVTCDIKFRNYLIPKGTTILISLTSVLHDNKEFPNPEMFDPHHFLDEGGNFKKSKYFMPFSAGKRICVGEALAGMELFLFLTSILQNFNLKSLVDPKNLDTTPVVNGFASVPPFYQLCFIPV
Procedure: as §2, §3

[6] = target: CYP2D6 (Homo sapiens (Human), UniProt P10635); experiment: as above; type: in vitro ADME; conditions: incubation concentration 0-50/100 μM
Chain of CYP2D6 (P10635 whole entry): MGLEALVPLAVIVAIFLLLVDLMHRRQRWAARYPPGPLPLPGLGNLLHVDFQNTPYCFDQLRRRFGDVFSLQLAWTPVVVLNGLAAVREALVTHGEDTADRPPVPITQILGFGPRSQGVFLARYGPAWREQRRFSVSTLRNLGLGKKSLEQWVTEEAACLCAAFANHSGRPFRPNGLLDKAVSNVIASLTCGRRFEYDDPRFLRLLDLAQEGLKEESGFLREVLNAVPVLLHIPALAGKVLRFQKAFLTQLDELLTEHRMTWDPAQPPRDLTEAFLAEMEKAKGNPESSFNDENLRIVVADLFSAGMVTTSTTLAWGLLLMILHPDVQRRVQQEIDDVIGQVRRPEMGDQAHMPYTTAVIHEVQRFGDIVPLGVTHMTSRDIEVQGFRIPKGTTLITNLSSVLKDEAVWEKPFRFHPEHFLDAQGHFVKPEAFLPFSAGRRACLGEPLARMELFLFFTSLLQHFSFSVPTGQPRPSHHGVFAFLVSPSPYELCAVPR
Procedure: as §2, §3

[7] = target: CYP3A4 (Homo sapiens (Human), UniProt P08684); experiment: as above; type: in vitro ADME; conditions: incubation concentration 0-50/100 μM, read-out: IC50 CYP3A-M
Chain of CYP3A4 (P08684 whole entry): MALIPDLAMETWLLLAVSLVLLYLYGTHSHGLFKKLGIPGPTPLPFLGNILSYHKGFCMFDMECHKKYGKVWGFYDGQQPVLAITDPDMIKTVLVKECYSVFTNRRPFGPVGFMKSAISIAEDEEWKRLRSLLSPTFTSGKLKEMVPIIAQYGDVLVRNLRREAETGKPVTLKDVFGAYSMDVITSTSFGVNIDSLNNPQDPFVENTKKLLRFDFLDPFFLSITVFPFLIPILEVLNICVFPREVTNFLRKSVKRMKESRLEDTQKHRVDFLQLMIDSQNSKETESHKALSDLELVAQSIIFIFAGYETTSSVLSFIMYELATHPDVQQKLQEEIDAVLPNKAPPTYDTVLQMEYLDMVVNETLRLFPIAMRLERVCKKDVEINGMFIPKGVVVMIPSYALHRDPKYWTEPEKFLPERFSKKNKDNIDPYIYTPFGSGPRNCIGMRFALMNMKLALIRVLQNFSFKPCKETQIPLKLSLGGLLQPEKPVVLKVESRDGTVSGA
Procedure: as §2, §3

| SMILES | AUC(0-t) ([1]; iv, i.v. (2.5 mg/kg)) | clearance ([1]; iv, i.v. (2.5 mg/kg)) | Vd ([1]; iv, i.v. (2.5 mg/kg)) | bioavailability ([1]; po, i.g. (10 mg/kg)) | AUC(0-t) ([1]; po, i.g. (10 mg/kg)) | AUC(0-t) ([2]; iv, i.v. (5 mg/kg)) | clearance ([2]; iv, i.v. (5 mg/kg)) | Vd ([2]; iv, i.v. (5 mg/kg)) | bioavailability ([2]; po, i.g. (10 mg/kg)) | AUC(0-t) ([2]; po, i.g. (10 mg/kg)) | IC50 [3] | inhibition at 40 µM [3] | IC50 [4] | IC50 [5] | IC50 [6] | IC50 [7] |
| --- | --- | --- | --- | --- | --- | --- | --- | --- | --- | --- | --- | --- | --- | --- | --- | --- |
| C[C@@H]1Cc2c([nH]c3ccc(F)cc23)[C@@H](c2c(F)cc(N[C@H]3CCN(CCCF)C3)cc2F)N1CC(F)(F)F [Compound 18, (S)—N-(3,5-difluoro-4-((1R,3R)-6-fluoro-3-methyl-2-(2,2,2-trifluoroethyl)-2,3,4,9-tetrahydro-1H-pyrido[3,4-b]indol-1-yl)phenyl)-1-(3-fluoropropyl)pyrrolidin-3-amine] | 2070 ± 294 ng·h/mL | 16.9 ± 4 mL/min/kg | 12.2 ± 1.5 L/kg | 55 ± 13% | 4560 ± 1040 ng·h/mL | 3810 ng·h/mL | 15 mL/min/kg | 18.2 L/kg | 74.3% | 5650 ng·h/mL | 2.82 µM | 100 ± 1.79% | > 100 µM | 20 µM | 34.1 µM | 15.7 µM |
| C[C@@H]1Cc2c([nH]c3cc(F)ccc23)[C@@H](c2c(F)cc(N[C@H]3CCN(CCCF)C3)cc2F)N1CC(F)(F)F [Compound 32, (S)—N-(3,5-difluoro-4-((1R,3R)-7-fluoro-3-methyl-2-(2,2,2-trifluoroethyl)-2,3,4,9-tetrahydro-1H-pyrido[3,4-b]indol-1-yl)phenyl)-1-(3-fluoropropyl)pyrrolidin-3-amine] | 853 ± 48 ng·h/mL | 39.2 ± 2.8 mL/min/kg | 31.4 ± 5.9 L/kg | 57.6 ± 14% | 1970 ± 469 ng·h/mL | 3360 ng·h/mL | 16.3 mL/min/kg | 21.6 L/kg | 65.6% | 4410 ng·h/mL | 4.14 µM | 100.2 ± 0.74% | > 100 µM | 19.5 µM | 23.4 µM | 18.9 µM |
| C#Cc1ccc2c3c([nH]c2c1)[C@@H](c1c(F)cc(N[C@H]2CCN(CCCF)C2)cc1F)N(CC(F)(F)F)[C@H](C)C3 [Compound 43, (S)—N-(4-((1R,3R)-7-ethynyl-3-methyl-2-(2,2,2-trifluoroethyl)-2,3,4,9-tetrahydro-1H-pyrido[3,4-b]indol-1-yl)-3,5-difluorophenyl)-1-(3-fluoropropyl)pyrrolidin-3-amine] | 1570 ± 143 ng·h/mL | 20.8 ± 2 mL/min/kg | 18.1 ± 2.1 L/kg | 51 ± 2.1% | 3200 ± 129 ng·h/mL | 10200 ng·h/mL | 8.21 mL/min/kg | 16.6 L/kg | 50.2% | 10200 ng·h/mL | 12.3 µM | 98.28 ± 0.93% | 41.6 µM | > 42.8 µM | 21.5 µM | > 12.7 µM |
